Key:
[1] = biological target: smooth muscle myosin (Homo sapiens, UniProt P35749); assay: Biochemical activity against smooth muscle myosin
[2] = system: subjects with symptomatic HCM and LVOT obstruction; assay: Phase 2 open-label pilot study Pioneer-HCM-B (Cohort B); format: in vivo, human
Method: This trial was similar to the trial described in Example 3, but will have several important differences. For example, subjects in the Phase 2-B trial will not be required to discontinue their β-blocker therapy, and the dose of Compound 1 will be reduced to 2 to 5 mg.
The following results were obtained generally following the procedures described in Example 3 and Example 5.

[3] = 2 mg/day for 4 weeks, preliminary
[4] = Cohort B (2-5 mg daily doses), mean ± SD
[5] = Cohort B, baseline to Week 12, n 10

Sequence of smooth muscle myosin (P35749 whole entry): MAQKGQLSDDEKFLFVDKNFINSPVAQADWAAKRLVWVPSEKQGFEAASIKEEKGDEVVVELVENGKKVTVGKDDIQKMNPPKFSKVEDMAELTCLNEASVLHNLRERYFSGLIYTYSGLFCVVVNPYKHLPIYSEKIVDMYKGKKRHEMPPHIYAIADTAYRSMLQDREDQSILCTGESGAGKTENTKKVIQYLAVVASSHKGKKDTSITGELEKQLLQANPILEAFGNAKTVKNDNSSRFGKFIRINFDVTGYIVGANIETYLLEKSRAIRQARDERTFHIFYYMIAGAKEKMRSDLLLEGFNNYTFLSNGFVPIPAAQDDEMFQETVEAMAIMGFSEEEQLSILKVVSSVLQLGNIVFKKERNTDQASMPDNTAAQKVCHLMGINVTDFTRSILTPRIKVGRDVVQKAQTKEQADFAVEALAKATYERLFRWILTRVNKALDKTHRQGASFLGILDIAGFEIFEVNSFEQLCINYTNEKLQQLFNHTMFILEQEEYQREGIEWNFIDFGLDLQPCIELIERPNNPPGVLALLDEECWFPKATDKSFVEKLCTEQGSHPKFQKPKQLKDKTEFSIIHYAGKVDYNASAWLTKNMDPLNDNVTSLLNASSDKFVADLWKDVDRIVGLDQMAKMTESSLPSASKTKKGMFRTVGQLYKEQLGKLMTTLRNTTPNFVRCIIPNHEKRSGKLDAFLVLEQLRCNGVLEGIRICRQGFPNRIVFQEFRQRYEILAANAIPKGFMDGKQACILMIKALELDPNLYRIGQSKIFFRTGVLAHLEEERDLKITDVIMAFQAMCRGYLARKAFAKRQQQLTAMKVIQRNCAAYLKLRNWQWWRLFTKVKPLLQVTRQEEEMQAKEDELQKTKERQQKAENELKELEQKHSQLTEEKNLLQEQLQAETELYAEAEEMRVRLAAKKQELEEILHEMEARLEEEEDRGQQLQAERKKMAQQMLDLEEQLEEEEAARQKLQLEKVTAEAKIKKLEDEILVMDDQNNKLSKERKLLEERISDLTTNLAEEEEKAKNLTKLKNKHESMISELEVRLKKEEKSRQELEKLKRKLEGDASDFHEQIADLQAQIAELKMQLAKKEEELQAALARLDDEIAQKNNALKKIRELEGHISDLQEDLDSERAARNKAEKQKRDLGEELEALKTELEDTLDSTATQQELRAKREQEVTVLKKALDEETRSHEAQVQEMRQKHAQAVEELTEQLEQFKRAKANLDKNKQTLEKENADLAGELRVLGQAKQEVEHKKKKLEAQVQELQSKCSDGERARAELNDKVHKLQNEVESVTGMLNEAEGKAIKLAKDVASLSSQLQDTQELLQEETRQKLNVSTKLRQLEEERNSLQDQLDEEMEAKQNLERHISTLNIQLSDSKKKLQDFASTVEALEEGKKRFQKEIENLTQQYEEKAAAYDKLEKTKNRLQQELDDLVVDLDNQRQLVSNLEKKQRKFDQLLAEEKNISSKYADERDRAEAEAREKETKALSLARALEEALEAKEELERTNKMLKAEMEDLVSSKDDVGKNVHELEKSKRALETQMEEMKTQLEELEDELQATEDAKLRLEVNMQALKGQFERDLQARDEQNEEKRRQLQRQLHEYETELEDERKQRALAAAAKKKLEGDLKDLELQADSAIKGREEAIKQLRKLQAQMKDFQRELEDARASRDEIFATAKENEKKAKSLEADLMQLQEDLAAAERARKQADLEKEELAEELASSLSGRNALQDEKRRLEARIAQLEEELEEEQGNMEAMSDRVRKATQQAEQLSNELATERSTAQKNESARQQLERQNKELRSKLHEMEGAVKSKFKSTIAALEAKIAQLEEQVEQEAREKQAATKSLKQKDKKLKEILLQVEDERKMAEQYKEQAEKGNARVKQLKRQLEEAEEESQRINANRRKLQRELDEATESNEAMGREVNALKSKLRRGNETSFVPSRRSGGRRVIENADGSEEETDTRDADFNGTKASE
Sequence of smooth muscle myosin (P60660 whole entry partner): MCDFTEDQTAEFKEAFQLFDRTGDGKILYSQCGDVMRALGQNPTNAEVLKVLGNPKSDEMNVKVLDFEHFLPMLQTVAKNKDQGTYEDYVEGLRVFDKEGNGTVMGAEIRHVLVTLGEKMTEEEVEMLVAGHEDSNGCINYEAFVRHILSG
Sequence of smooth muscle myosin (P24844 whole entry partner): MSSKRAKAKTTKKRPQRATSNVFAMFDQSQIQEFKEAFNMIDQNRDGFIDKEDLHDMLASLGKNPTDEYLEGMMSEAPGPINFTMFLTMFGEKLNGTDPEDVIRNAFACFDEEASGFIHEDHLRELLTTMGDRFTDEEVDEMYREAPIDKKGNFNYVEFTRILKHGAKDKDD

Compound: CC(C)n1c(=O)cc(N[C@@H](C)c2ccccc2)[nH]c1=O [Compound 1, (S)-3-Isopropyl-6-((1-phenylethyl)amino) pyrimidine-2, 4(1H,3H)-dione]
- activity against smooth muscle myosin [1]: biochemically inactive
- LV filling pressure and diastolic peak mitral annular velocity ([2]; 2 mg/day for 4 weeks, absence of a change in afterload): beneficial effects on LV filling pressure (↓E/e′ and NTpro-BNP) and in diastolic peak mitral annular velocity (e′)
- LV systolic function at rest and immediately post-exercise [2, 3]: not affected
- effect on LVOT rest and exercise gradients [2, 3]: consistent effect on LVOT rest and exercise gradients
- NYHA functional class ([2]; 12 weeks of Compound 1, 4 weeks of washout (FIG. 21)): improvement in NYHA functional class in individuals after 12 weeks and the reversal of improvement after 4 weeks of washout
- patients with >1.5 mL/kg/min improvement in pVO2 ([2]; Cohort B): *5 of 10 patients had >1.5 mL/kg/mm improvement in pVO2
- patients with improved NYHA Class ([2]; Cohort B): 8 of 10 and **Improved NYHA Class in 9 out of 10 patients
- Resting Gradient Week 4 ([2]; Cohort B (2 mg/day), preliminary, mean ± SD, N 5, baseline 84 ± 76 (6)): 59 ± 61 mm Hg
- Septal e′ Week 4 ([2]; Cohort B (2 mg/day), preliminary, mean ± SD, N 6, baseline 3.9 ± 1.1 (6)): 4.5 ± 1.4
- Mean e′ Week 4 ([2]; Cohort B (2 mg/day), preliminary, mean ± SD, N 6, baseline 4.7 ± 1.0 (6)): 5.7 ± 1.3
- Lateral e′ Week 4 ([2]; Cohort B (2 mg/day), preliminary, mean ± SD, N 6, baseline 5.4 ± 1.0 (6)): 7.0 ± 1.2
- E/e′ Week 4 ([2]; Cohort B (2 mg/day), preliminary, mean ± SD, N 6, baseline 14.0 ± 3.4 (6)): 10.7 ± 3.5
- Post-exercise Gradient Week 4 ([2]; Cohort B (2 mg/day), preliminary, mean ± SD, N 6, baseline 70 ± 45 (6)): 93 ± 56 mm Hg
- Resting LVEF Week 4 ([2]; Cohort B (2 mg/day), preliminary, mean ± SD, N 6, baseline 71 ± 4 (6)): 73 ± 6%
- Stroke Volume Week 4 ([2]; Cohort B (2 mg/day), preliminary, mean ± SD, N 6, baseline 73.3 ± 6.5 (6)): 77.8 ± 14.3 mL
- Post-exercise LVEF Week 4 ([2]; Cohort B (2 mg/day), preliminary, mean ± SD, N 6, baseline 78 ± 9 (5)): 76 ± 3%
- NT-pro BNP Week 4 ([2]; Cohort B (2 mg/day), preliminary, mean ± SD, N 7, baseline 2162 ± 3601 (8)): 1258 ± 1789 pg/mL
- improvement in peak VO2 in 4 subjects ([2]; Cohort B (2-5 mg daily doses)): ≥ 2.9 mL/min/kg
- Dyspnea numerical rating (signed change) [2, 4]: −3.0 ± 2.8
- NYHA Class (signed change) [2, 4]: −1.0 ± 0.5
- Peak VO2 (signed change) [2, 4]: +1.67 ± 2.3 mL/kg/min
- Post-exercise peak LVOT gradient (signed change) [2, 4]: −25.0 ± 28.7 mmHg
- Resting LVEF (signed change) [2, 4]: −5.5 ± 6.0%
- Resting LVOT gradient (signed change) [2, 4]: −48.5 ± 48.0 mmHg
- NT-proBNP Delta ([2]; Cohort B, baseline to Week 12, n 9): −1195 ± 2770
- Dyspnea score Delta [2, 5]: −3.0 ± 2.8
- E/e′ Delta [2, 5]: −1.3 ± 4.6
- LA Vol (index) Delta [2, 5]: −6 ± 12 mL/m^2
- LVEDV Delta [2, 5]: 6 ± 18
- Lateral e′ Delta [2, 5]: 0.3 ± 2.2 cm/s
- Dyspnea score Week 12 ([2]; Cohort B, baseline 4.0 ± 2.6, n 10): 1.0 ± 0.7
- Lateral e′ Week 12 ([2]; Cohort B, baseline 5.9 ± 1.0, n 10): 6.1 ± 2.1 cm/s
- E/e′ Week 12 ([2]; Cohort B, baseline 13.9 ± 3.5, n 10): 12.6 ± 4.1
- LA Vol (index) Week 12 ([2]; Cohort B, baseline 41 ± 20, n 10): 35 ± 12 mL/m^2
- LVEDV Week 12 ([2]; Cohort B, baseline 95 ± 15, n 10): 101 ± 25
- NT-proBNP Week 12 ([2]; Cohort B, baseline 1834 ± 3209, n 9): 826 ± 1063
- peak VO2 ([2]; by week 12 (FIG. 23)): improvement in peak VO2 by week 12
- dyspnea ([2]; throughout the trial, improvement reversed after 4 weeks of washout (FIG. 22)): rapid improvement in peak in dyspnea
